Measurements taken from PubChem BioAssay (NCI).
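1) Cells in 96-well plates. 2) Compound, 48 h, 5 concentrations. 3) Linear interpolation between surrounding doses. 4) Unreached endpoint = highest concentration. The concentration for 50% growth inhibition is given as GI50. TGI denotes the concentration required for complete inhibition of growth.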

Tests used:
Test in all cases: NCI tumour cell line growth inhibition, 48 h
NCI-H460 lung = system: NCI-H460 lung
SK-MEL-2 melanoma = system: SK-MEL-2 melanoma
MDA-MB-435 = system: MDA-MB-435
SR leukemia = system: SR leukemia
HL-60(TB) leukemia = system: HL-60(TB) leukemia
RXF 393 renal = system: RXF 393 renal
K-562 leukemia = system: K-562 leukemia
UO-31 renal = system: UO-31 renal
HT29 colon = system: HT29 colon
LOX IMVI melanoma = system: LOX IMVI melanoma
SF-295 CNS = system: SF-295 CNS
COLO 205 colon = system: COLO 205 colon
MOLT-4 leukemia = system: MOLT-4 leukemia
786-0 renal = system: 786-0 renal
BT-549 breast = system: BT-549 breast
HS 578T breast = system: HS 578T breast
NCI-H522 lung = system: NCI-H522 lung
SK-OV-3 ovarian = system: SK-OV-3 ovarian
A549 NSCLC = system: A549 NSCLC
UACC-257 melanoma = system: UACC-257 melanoma
HOP-62 NSCLC = system: HOP-62 NSCLC
SNB-75 CNS = system: SNB-75 CNS
UACC-62 melanoma = system: UACC-62 melanoma
MALME-3M melanoma = system: MALME-3M melanoma
HCT-116 colon = system: HCT-116 colon
NCI-H23 lung = system: NCI-H23 lung
SW-620 colon = system: SW-620 colon
OVCAR-5 ovarian = system: OVCAR-5 ovarian
MDA-MB-231 breast = system: MDA-MB-231 breast
SF-539 CNS = system: SF-539 CNS
HOP-92 NSCLC = system: HOP-92 NSCLC
ACHN renal = system: ACHN renal
A498 renal = system: A498 renal
SK-MEL-5 melanoma = system: SK-MEL-5 melanoma
NCI-H226 lung = system: NCI-H226 lung
HCC-2998 colon = system: HCC-2998 colon
CCRF-CEM leukemia = system: CCRF-CEM leukemia
U251 CNS = system: U251 CNS
SN12C renal = system: SN12C renal
M14 melanoma = system: M14 melanoma
OVCAR-8 ovarian = system: OVCAR-8 ovarian
NCI/ADR-RES ovarian = system: NCI/ADR-RES ovarian
HCT-15 colon = system: HCT-15 colon
IGROV1 ovarian = system: IGROV1 ovarian
EKVX NSCLC = system: EKVX NSCLC
OVCAR-4 ovarian = system: OVCAR-4 ovarian
KM12 colon = system: KM12 colon
SF-268 CNS = system: SF-268 CNS
DU-145 prostate = system: DU-145 prostate
MCF7 breast = system: MCF7 breast
SK-MEL-28 melanoma = system: SK-MEL-28 melanoma
PC-3 prostate = system: PC-3 prostate
TK-10 renal = system: TK-10 renal
RPMI-8226 leukemia = system: RPMI-8226 leukemia
SNB-19 CNS = system: SNB-19 CNS
CAKI-1 renal = system: CAKI-1 renal

For `CCN1C(=O)N(CC)C2SC(N/N=C/C=C/c3ccccc3OC)=NC21` (stereo unspecified), which GI50 (NCI-H460 lung) is on record?
The GI50 was 379 nM.

What about the TGI (NCI-H460 lung) of the same compound?
The TGI was 13100 nM.

And the GI50 (SK-MEL-2 melanoma)?
Its GI50 is 672 nM.

And the TGI (SK-MEL-2 melanoma)?
Its TGI is 18100 nM.

What about the GI50 (MDA-MB-435) of the same compound?
The GI50 was 224 nM.

What about the TGI (MDA-MB-435) of the same compound?
The TGI was 560 nM.

What about the GI50 (SR leukemia) of the same compound?
Its GI50 is 351 nM.

And the TGI (SR leukemia)?
Its TGI is greater than 100000 nM.

And the GI50 (HL-60(TB) leukemia)?
Its GI50 is 299 nM.

And the GI50 (RXF 393 renal)?
Its GI50 is 350 nM.

What about the TGI (RXF 393 renal) of the same compound?
The TGI was 8900 nM.

And the GI50 (K-562 leukemia)?
Its GI50 is 400 nM.

What about the TGI (K-562 leukemia) of the same compound?
Its TGI is greater than 100000 nM.

And the GI50 (UO-31 renal)?
Its GI50 is 730 nM.

What about the TGI (UO-31 renal) of the same compound?
The TGI was greater than 100000 nM.

What about the GI50 (HT29 colon) of the same compound?
The GI50 was 346 nM.

What about the TGI (HT29 colon) of the same compound?
The TGI was 3820 nM.

What about the GI50 (LOX IMVI melanoma) of the same compound?
The GI50 was 569 nM.

And the TGI (LOX IMVI melanoma)?
The TGI was 26900 nM.

What about the GI50 (SF-295 CNS) of the same compound?
Its GI50 is 371 nM.

What about the TGI (SF-295 CNS) of the same compound?
The TGI was greater than 55100 nM.

What about the GI50 (COLO 205 colon) of the same compound?
Its GI50 is 308 nM.

And the TGI (COLO 205 colon)?
The TGI was 951 nM.

What about the GI50 (MOLT-4 leukemia) of the same compound?
The GI50 was 652 nM.

What about the TGI (MOLT-4 leukemia) of the same compound?
Its TGI is greater than 100000 nM.

What about the GI50 (786-0 renal) of the same compound?
The GI50 was 758 nM.

And the TGI (786-0 renal)?
The TGI was 18900 nM.

What about the GI50 (BT-549 breast) of the same compound?
Its GI50 is 353 nM.

What about the TGI (BT-549 breast) of the same compound?
The TGI was 1410 nM.

And the GI50 (HS 578T breast)?
The GI50 was 321 nM.

And the TGI (HS 578T breast)?
The TGI was greater than 100000 nM.

What about the GI50 (NCI-H522 lung) of the same compound?
Its GI50 is 236 nM.

And the TGI (NCI-H522 lung)?
The TGI was 703 nM.

What about the GI50 (SK-OV-3 ovarian) of the same compound?
The GI50 was 528 nM.

What about the TGI (SK-OV-3 ovarian) of the same compound?
The TGI was greater than 100000 nM.

What about the GI50 (A549 NSCLC) of the same compound?
Its GI50 is 750 nM.

What about the TGI (A549 NSCLC) of the same compound?
Its TGI is greater than 100000 nM.

What about the GI50 (UACC-257 melanoma) of the same compound?
Its GI50 is 838 nM.

What about the TGI (UACC-257 melanoma) of the same compound?
Its TGI is greater than 100000 nM.

What about the GI50 (HOP-62 NSCLC) of the same compound?
The GI50 was 535 nM.

And the TGI (HOP-62 NSCLC)?
Its TGI is greater than 100000 nM.

What about the GI50 (SNB-75 CNS) of the same compound?
Its GI50 is 265 nM.

What about the TGI (SNB-75 CNS) of the same compound?
Its TGI is greater than 100000 nM.

And the GI50 (UACC-62 melanoma)?
The GI50 was 405 nM.

What about the TGI (UACC-62 melanoma) of the same compound?
The TGI was greater than 100000 nM.

What about the GI50 (MALME-3M melanoma) of the same compound?
Its GI50 is 504 nM.

What about the TGI (MALME-3M melanoma) of the same compound?
Its TGI is greater than 100000 nM.

What about the GI50 (HCT-116 colon) of the same compound?
The GI50 was 419 nM.

What about the TGI (HCT-116 colon) of the same compound?
The TGI was greater than 100000 nM.

And the GI50 (NCI-H23 lung)?
Its GI50 is 614 nM.

What about the TGI (NCI-H23 lung) of the same compound?
The TGI was greater than 100000 nM.

And the GI50 (SW-620 colon)?
The GI50 was 383 nM.

What about the TGI (SW-620 colon) of the same compound?
Its TGI is greater than 100000 nM.

And the GI50 (OVCAR-5 ovarian)?
The GI50 was 1300 nM.

And the TGI (OVCAR-5 ovarian)?
Its TGI is greater than 100000 nM.

And the GI50 (MDA-MB-231 breast)?
The GI50 was 1500 nM.

And the TGI (MDA-MB-231 breast)?
The TGI was 38600 nM.

And the GI50 (SF-539 CNS)?
Its GI50 is 305 nM.

And the TGI (SF-539 CNS)?
The TGI was 2940 nM.

And the GI50 (HOP-92 NSCLC)?
The GI50 was 266 nM.

And the TGI (HOP-92 NSCLC)?
Its TGI is 4300 nM.

And the GI50 (ACHN renal)?
The GI50 was 744 nM.

What about the TGI (ACHN renal) of the same compound?
The TGI was greater than 100000 nM.

And the GI50 (A498 renal)?
Its GI50 is 188 nM.

And the TGI (A498 renal)?
Its TGI is 636 nM.

What about the GI50 (SK-MEL-5 melanoma) of the same compound?
The GI50 was 525 nM.

And the TGI (SK-MEL-5 melanoma)?
The TGI was 9170 nM.

And the GI50 (NCI-H226 lung)?
Its GI50 is 562 nM.

What about the TGI (NCI-H226 lung) of the same compound?
Its TGI is greater than 100000 nM.

And the GI50 (HCC-2998 colon)?
The GI50 was 853 nM.

What about the TGI (HCC-2998 colon) of the same compound?
Its TGI is 13600 nM.

What about the GI50 (CCRF-CEM leukemia) of the same compound?
The GI50 was 386 nM.

What about the TGI (CCRF-CEM leukemia) of the same compound?
Its TGI is greater than 100000 nM.

And the GI50 (U251 CNS)?
The GI50 was 400 nM.

What about the TGI (U251 CNS) of the same compound?
The TGI was 16900 nM.

What about the GI50 (SN12C renal) of the same compound?
Its GI50 is 991 nM.

And the TGI (SN12C renal)?
Its TGI is greater than 76600 nM.

And the GI50 (M14 melanoma)?
The GI50 was 313 nM.

And the TGI (M14 melanoma)?
The TGI was 3230 nM.

And the GI50 (OVCAR-8 ovarian)?
The GI50 was 588 nM.

And the TGI (OVCAR-8 ovarian)?
The TGI was 7140 nM.

And the GI50 (NCI/ADR-RES ovarian)?
The GI50 was 495 nM.

And the TGI (NCI/ADR-RES ovarian)?
The TGI was greater than 100000 nM.

What about the GI50 (HCT-15 colon) of the same compound?
The GI50 was 428 nM.

And the TGI (HCT-15 colon)?
The TGI was greater than 100000 nM.

What about the GI50 (IGROV1 ovarian) of the same compound?
Its GI50 is 668 nM.

And the TGI (IGROV1 ovarian)?
Its TGI is greater than 100000 nM.

What about the GI50 (EKVX NSCLC) of the same compound?
Its GI50 is 1120 nM.

What about the TGI (EKVX NSCLC) of the same compound?
The TGI was greater than 100000 nM.

And the GI50 (OVCAR-4 ovarian)?
Its GI50 is 20300 nM.

What about the TGI (OVCAR-4 ovarian) of the same compound?
Its TGI is greater than 100000 nM.

What about the GI50 (KM12 colon) of the same compound?
Its GI50 is 431 nM.

What about the TGI (KM12 colon) of the same compound?
The TGI was greater than 46300 nM.

And the GI50 (SF-268 CNS)?
Its GI50 is 2510 nM.

What about the TGI (SF-268 CNS) of the same compound?
Its TGI is greater than 100000 nM.

And the GI50 (DU-145 prostate)?
Its GI50 is 704 nM.

And the TGI (DU-145 prostate)?
Its TGI is greater than 100000 nM.

And the GI50 (MCF7 breast)?
The GI50 was 427 nM.

What about the TGI (MCF7 breast) of the same compound?
Its TGI is greater than 100000 nM.

And the GI50 (SK-MEL-28 melanoma)?
Its GI50 is 1510 nM.

And the TGI (SK-MEL-28 melanoma)?
The TGI was greater than 100000 nM.

What about the GI50 (PC-3 prostate) of the same compound?
The GI50 was 474 nM.

What about the TGI (PC-3 prostate) of the same compound?
Its TGI is greater than 72500 nM.

And the GI50 (TK-10 renal)?
The GI50 was 19400 nM.

What about the TGI (TK-10 renal) of the same compound?
Its TGI is greater than 96600 nM.

And the GI50 (RPMI-8226 leukemia)?
The GI50 was 398 nM.

And the TGI (RPMI-8226 leukemia)?
The TGI was 18200 nM.

And the GI50 (SNB-19 CNS)?
Its GI50 is 538 nM.

And the TGI (SNB-19 CNS)?
The TGI was greater than 100000 nM.

What about the GI50 (CAKI-1 renal) of the same compound?
The GI50 was 567 nM.

What about the TGI (CAKI-1 renal) of the same compound?
The TGI was greater than 100000 nM.
